Like-named read-outs stand apart in the source and are kept apart here.
Columns and labels:
Format in all cases: cell-based
[1] = test system: WT HIV-1 (IIIB strain); assay: Anti-HIV-1 activity, protection of infected MT-2 cells (MTT)
[2] = test system: MT-2 human T-cells; assay: Cytotoxicity, inhibition of MT-2 cell growth
[3] = test system: HIV-1 variant containing the Y181C (Tyr181Cys) mutation; assay: Anti-HIV-1 activity against variant strain in MT-2 cells (MTT)
[4] = test system: HIV-1 variant containing the K103N/Y181C mutations; assay: Anti-HIV-1 activity against double-mutant strain in MT-2 cells (MTT)
[5] = Table 4, catechol diether derivatives, MT-2 cells, read-out: Anti-HIV-1 Activity (EC50)
[6] = Human immunodeficiency virus 1, IIIB, MT2, running text, read-out: EC50 against WT HIV-1
[7] = Human immunodeficiency virus 1, MT2, read-out: EC50 Y181C
[8] = Human immunodeficiency virus 1, MT2, read-out: EC50 K103N/Y181C
[9] = Table 5, MT-2 cells, read-out: EC50 WT
[10] = Table 4, MT-2 cells, read-out: Cytotoxicity (CC50)
[11] = Table 5, MT-2 cells, read-out: Average Cytotoxicity (CC50)
[12] = Table 5, MT-2 cells, read-out: EC50 Y181C
[13] = Table 5, MT-2 cells, read-out: EC50 K103N/Y181C

In the case of N#C/C=C/c1cc(Br)cc(Oc2ccc(Cl)cc2OCCn2ccc(=O)[nH]c2=O)c1 [JLJ518], the EC50 [1, 5] is reported as 5.2 nM and the CC50 [2] is reported as 80000 nM.
For N#Cc1cc(Cl)cc(Oc2ccc(C#N)cc2OCCn2cc(Cl)c(=O)[nH]c2=O)c1 [Compound 29, 3-(2-(5-chloro-2,4-dioxo-3,4-dihydropyrimidin-1(2H)-yl)ethoxy)-4-(3-chloro-5-cyanophenoxy)benzonitrile], the CC50 ([2]; human) was 94000 nM.
Work on Cc1ccc(OCCn2ccc(=O)[nH]c2=O)c(Cc2ccccc2)c1 [Compound 1, 1-(2-(2-benzyl-4-methylphenoxy)ethyl)pyrimidine-2,4(1H,3H)-dione] yielded an EC50 [1, 6] of 5000 nM.
With N#Cc1cc(C#N)cc(Oc2cc(Cl)ccc2OCCn2ccc(=O)[nH]c2=O)c1 [Compound 20, 5-(5-chloro-2-(2-(2,4-dioxo-3,4-dihydropyrimidin-1(2H)-yl)ethoxy)phenoxy)isophthalonitrile] the EC50 [3, 7] was 21000 nM and the EC50 [4, 8] was 2200 nM.
O=c1[nH]c(=O)n(CCOc2ccc(Cl)cc2Cc2ccccc2)cc1Cl [Compound 14, 1-(2-(2-benzyl-4-chlorophenoxy)ethyl)-5-chloropyrimidine-2,4(1H,3H)-dione] showed a CC50 ([2]; human) of 21000 nM.
With N#C/C=C/c1cc(Cl)cc(Oc2ccccc2OCCn2ccc(=O)[nH]c2=O)c1 [JLJ532] the EC50 [1, 5] was 0.31 nM, the EC50 [1, 9] was 0.31 nM and the CC50 [2, 10] was 18000 nM. For the same molecule, the CC50 [2, 11] was 11000 nM, the EC50 [3, 12] was 46 nM and the EC50 [4, 13] was 24 nM.
O=c1ccn(CCOc2ccc(Cl)cc2Cc2ccccc2Cl)c(=O)[nH]1 [Compound 6, 1-(2-(4-chloro-2-(2-chlorobenzyl)phenoxy)ethyl)pyrimidine-2,4(1H,3H)-dione] gave a CC50 ([2]; human) of 28000 nM.
With N#Cc1cc(F)c(Oc2ccccc2Cl)c(OCCn2ccc(=O)[nH]c2=O)c1 [Compound 44, 4-(2-chlorophenoxy)-3-(2-(2,4-dioxo-3,4-dihydropyrimidin-1(2H)-yl)ethoxy)-5-fluorobenzonitrile] the EC50 [1, 6] was 160 nM and the CC50 ([2]; human) was greater than 100000 nM.
For N#C/C=C/c1cccc(Oc2ccc(Cl)cc2OCCn2ccc(=O)[nH]c2=O)c1 [Compound 41, (E)-3-(3-(4-chloro-2-(2-(2,4-dioxo-3,4-dihydropyrimidin-1(2H)-yl)ethoxy)phenoxy)phenyl)acrylonitrile], the EC50 [1, 6] was 5 nM, the EC50 [3, 7] was 370 nM and the EC50 [4, 8] was 1600 nM.
Molecule O=c1ccn(CCOc2ccc(Cl)cc2Cc2cc(Cl)cc(Cl)c2)c(=O)[nH]1 [Compound 9, 1-(2-(4-chloro-2-(3,5-dichlorobenzyl)phenoxy)ethyl)pyrimidine-2,4(1H,3H)-dione] has a CC50 ([2]; human) of 10000 nM.
With O=c1ccn(CCOc2ccc(Cl)cc2Cc2ccc(Cl)cc2Cl)c(=O)[nH]1 [Compound 8, 1-(2-(4-chloro-2-(2,4-dichlorobenzyl)phenoxy)ethyl)pyrimidine-2,4(1H,3H)-dione] the CC50 ([2]; human) was 88000 nM.
N#Cc1ccc(Oc2cc(Cl)ccc2Cl)c(COCc2ccncc2)c1 [Compound 35, 4-(2,5-dichlorophenoxy)-3-((pyridin-4-ylmethoxy)methyl)benzonitrile] was tested, and the EC50 [1, 6] was 1800 nM.
N#C/C=C/c1cc(F)cc(Oc2ccccc2OCCn2ccc(=O)[nH]c2=O)c1 [JLJ510] was tested, and the EC50 [1, 5] was 0.9 nM, the EC50 [1, 9] was 0.9 nM and the CC50 [2, 10] was 70000 nM. It also gave a CC50 [2, 11] of 85000 nM, an EC50 [3, 12] of 80 nM and an EC50 [4, 13] of 75 nM.
Molecule N#C/C=C/c1cccc(Oc2ccc(C#N)cc2OCCn2ccc(=O)[nH]c2=O)c1 [Compound 40, (E)-4-(3-(2-cyanovinyl)phenoxy)-3-(2-(2,4-dioxo-3,4-dihydropyrimidin-1(2H)-yl)ethoxy)benzonitrile] has an EC50 [1, 6] of 15 nM, an EC50 [3, 7] of 980 nM and an EC50 [4, 8] of 8000 nM.
Molecule N#Cc1cc(Cl)cc(Oc2ccc(Cl)cc2OCCn2cc(F)c(=O)[nH]c2=O)c1 [Compound 26, 3-chloro-5-(4-chloro-2-(2-(5-fluoro-2,4-dioxo-3,4-dihydropyrimidin-1(2H)-yl)ethoxy)phenoxy)benzonitrile] has an EC50 [3, 7] of 620 nM and an EC50 [4, 8] of 1700 nM.
N#Cc1ccc(Oc2cc(Cl)ccc2Cl)c(OCc2ccncc2)c1 [Compound 34] was tested, and the EC50 [1, 6] was 12000 nM.
N#Cc1ccc(Cl)c(Oc2ccc(Cl)cc2OCCn2ccc(=O)[nH]c2=O)c1 [Compound 23, 4-chloro-3-(4-chloro-2-(2-(2,4-dioxo-3,4-dihydropyrimidin-1(2H)-yl)ethoxy)phenoxy)benzonitrile] gave a CC50 ([2]; human) of 60000 nM.
For O=c1ccn(CCOc2ccc(Cl)cc2Cc2c(Cl)cccc2Cl)c(=O)[nH]1 [Compound 11, 1-(2-(4-chloro-2-(2,6-dichlorobenzyl)phenoxy)ethyl)pyrimidine-2,4(1H,3H)-dione], the CC50 ([2]; human) was 49000 nM.
With O=c1ccn(CCOc2ccc(Cl)cc2Cc2cc(Cl)ccc2Cl)c(=O)[nH]1 [Compound 10, 1-(2-(4-chloro-2-(2,5-dichlorobenzyl)phenoxy)ethyl)pyrimidine-2,4(1H,3H)-dione] the CC50 ([2]; human) was 15000 nM.
N#C/C=C/c1cc(Cl)cc(Oc2ccc(Br)cc2OCCn2ccc(=O)[nH]c2=O)c1 [JLJ531] gave an EC50 [1, 5] of 9.1 nM and a CC50 [2] of 13000 nM.
O=c1ccn(CCOc2cc(Cl)ccc2Cc2ccccc2Cl)c(=O)[nH]1 [Compound 15, 1-(2-(5-chloro-2-(2-chlorobenzyl)phenoxy)ethyl)pyrimidine-2,4(1H,3H)-dione] gave a CC50 ([2]; human) of 12000 nM.
N#Cc1cc(C#N)cc(Oc2ccc(Cl)cc2OCCn2ccc(=O)[nH]c2=O)c1 [Compound 24, 5-(4-chloro-2-(2-(2,4-dioxo-3,4-dihydropyrimidin-1(2H)-yl)ethoxy)phenoxy)isophthalonitrile] gave a CC50 ([2]; human) greater than 100000 nM.
With N#Cc1ccc(Oc2cc(Cl)cc(Cl)c2)c(OCCn2ccc(=O)[nH]c2=O)c1 [Compound 32, 4-(3,5-dichlorophenoxy)-3-(2-(2,4-dioxo-3,4-dihydropyrimidin-1(2H)-yl)ethoxy)benzonitrile] the EC50 [1, 6] was 20 nM, the EC50 [3, 7] was 800 nM and the EC50 [4, 8] was greater than 43000 nM.
Molecule N#Cc1ccc(Oc2cc(Cl)ccc2Cl)c(OCCc2ccncc2)c1 [Compound 33, 4-(2,5-dichlorophenoxy)-3-(2-(pyridin-4-yl)ethoxy)benzonitrile] has an EC50 [1, 6] of 760 nM.
Molecule N#Cc1cc(Cl)cc(Oc2cc(Cl)ccc2OCCn2ccc(=O)[nH]c2=O)c1 [Compound 22, 3-chloro-5-(5-chloro-2-(2-(2,4-dioxo-3,4-dihydropyrimidin-1(2H)-yl)ethoxy)phenoxy)benzonitrile] has an EC50 [3, 7] of 6700 nM and an EC50 [4, 8] of 1200 nM.
Molecule N#Cc1cccc(Cl)c1Oc1cc(Cl)ccc1OCCn1ccc(=O)[nH]c1=O [Compound 21, 3-chloro-2-(5-chloro-2-(2-(2,4-dioxo-3,4-dihydropyrimidin-1(2H)-yl)ethoxy)phenoxy)benzonitrile] has a CC50 ([2]; human) of 50000 nM.
For COc1cc(Cl)ccc1Oc1cc(Cl)cc(C#N)c1 [Compound 36, 3-chloro-5-(4-chloro-2-methoxyphenoxy)benzonitrile], the EC50 [1, 6] was 9900 nM.
In the case of N#Cc1cc(Cl)cc(Oc2ccc(C#N)cc2OCCn2ccc(=O)[nH]c2=O)c1 [Compound 28, 4-(3-chloro-5-cyanophenoxy)-3-(2-(2,4-dioxo-3,4-dihydropyrimidin-1(2H)-yl)ethoxy)benzonitrile], the CC50 ([2]; human) is reported as greater than 100000 nM.
For COCCOc1cccc(Oc2ccc(C#N)cc2OCCn2ccc(=O)[nH]c2=O)c1 [Compound 46, 3-(2-(2,4-dioxo-3,4-dihydropyrimidin-1(2H)-yl)ethoxy)-4-(3-(2-methoxyethoxy)phenoxy)benzonitrile], the EC50 [1, 6] was 540 nM and the CC50 ([2]; human) was greater than 100000 nM.
N#Cc1ccc(Oc2cc(Cl)ccc2Cl)c(OCCn2ccc(=O)[nH]c2=O)c1 [Compound 31, 4-(2,5-dichlorophenoxy)-3-(2-(2,4-dioxo-3,4-dihydropyrimidin-1(2H)-yl)ethoxy)benzonitrile] showed an EC50 [1, 6] of 43 nM, an EC50 [3, 7] of 920 nM and an EC50 [4, 8] of 2800 nM.
For O=c1ccn(CCOc2ccc(Cl)cc2Cc2cccc(Cl)c2)c(=O)[nH]1 [Compound 7, 1-(2-(4-chloro-2-(3-chlorobenzyl)phenoxy)ethyl)pyrimidine-2,4(1H,3H)-dione], the CC50 ([2]; human) was 11000 nM.
N#Cc1ccc(Oc2ccccc2Cl)c(OCCn2ccc(=O)[nH]c2=O)c1 [Compound 30, 4-(2-chlorophenoxy)-3-(2-(2,4-dioxo-3,4-dihydropyrimidin-1(2H)-yl)ethoxy)benzonitrile] gave an EC50 [1, 6] of 270 nM and a CC50 ([2]; human) greater than 100000 nM.
In the case of N#C/C=C/c1cc(F)cc(Oc2ccc(OCCN3CCOCC3)cc2OCCn2ccc(=O)[nH]c2=O)c1 [JLJ526], the EC50 [1, 5] is reported as 520 nM and the CC50 [2] is reported as 27000 nM.
With O=c1ccn(CCOc2ccc(Cl)cc2Cc2ccccc2)c(=O)[nH]1 [Compound 5, 1-(2-(2-benzyl-4-chlorophenoxy)ethyl)pyrimidine-2,4(1H,3H)-dione] the CC50 ([2]; human) was 23000 nM.
Molecule O=c1[nH]c(=O)n(CCOc2ccc(Cl)cc2Cc2ccccc2)cc1F [Compound 13, 1-(2-(2-benzyl-4-chlorophenoxy)ethyl)-5-fluoropyrimidine-2,4(1H,3H)-dione] has a CC50 ([2]; human) of 27000 nM.
With Cc1cn(CCOc2ccc(Cl)cc2Cc2ccccc2)c(=O)[nH]c1=O [Compound 12, 1-(2-(2-benzyl-4-chlorophenoxy)ethyl)-5-methylpyrimidine-2,4(1H,3H)-dione] the CC50 ([2]; human) was 22000 nM.
N#C/C=C/c1cc(Cl)cc(Oc2ccc(OCCN3CCOCC3)cc2OCCn2ccc(=O)[nH]c2=O)c1 [JLJ530] was tested, and the EC50 [1, 5] was 1100 nM and the CC50 [2] was 100000 nM.
N#C/C=C/c1cc(F)cc(Oc2ccc(Br)cc2OCCn2ccc(=O)[nH]c2=O)c1 [JLJ511] gave an EC50 [1, 5] of 1.8 nM and a CC50 [2] of 15000 nM.
O=c1ccn(CCOc2cc(Cl)cc(Cl)c2Oc2ccccc2Cl)c(=O)[nH]1 [Compound 45, 1-(2-(3,5-dichloro-2-(2-chlorophenoxy)phenoxy)ethyl)pyrimidine-2,4(1H,3H)-dione] gave an EC50 [1, 6] of 830 nM and a CC50 ([2]; human) of 13000 nM.
In the case of N#Cc1ccc(Oc2cccc(OCCCO)c2)c(OCCn2ccc(=O)[nH]c2=O)c1 [Compound 47, 3-(2-(2,4-dioxo-3,4-dihydropyrimidin-1(2H)-yl)ethoxy)-4-(3-(3-hydroxypropoxy)phenoxy)benzonitrile], the EC50 [1, 6] is reported as 1800 nM and the CC50 ([2]; human) is reported as greater than 100000 nM.
